The subject of data set [1] is Rin-m5F (pancreatic β-cell). In words: Cell permeability of Xentry, Rin-m5F cell line. Type of data set: cell-based. The settings on record: data not shown.
Data set [2] deals with HepG2 cells. The data set can be described thus: Assay to test for cell permeability of peptides. It counts as cell-based. Conditions: confocal microscopy. As to the method: Figure 1 Cell-permeability of X-protein peptides. (a) X-protein peptides aa 1–20 and 16–35 are cell-permeable. Four FITC-labelled peptides encompassing aa 1–20, 16–35, 21–40 and 34–53 from the N-terminal region of the X-protein were incubated at 10 μM with HepG2 cells and their uptake by the cells recorded by confocal microscopy. Cell nuclei were stained blue with DAPI. (b) The sequence of the first 35 N-terminal residues of the HBV X-protein are shown with the sequence of Xentry (LCLRPVG; residues 16–22) highlighted in red. Short FITC-labelled peptides (10 μM) aa 16–26, 16–24 and 16–22 (Xentry) derived from peptide aa 16–35 also permeate HepG2 cells (upper panel). […] Cell nuclei were stained blue with DAPI. […] Cell nuclei were stained blue with DAPI. Scale bar, 50 μm.
(§1) HepG2 cells (ATCC, Manassas, VA) were seeded into 8-well chamber slides at 1 × 10^5 cells per well in MEM media (Gibco, Life Technologies New Zealand Ltd) containing 10% FCS and PSG. […] L-isomeric peptides were diluted in 500 μl of MEM media without FCS, whereas D-isomeric peptides were diluted in the same media containing FCS, and each added to cells at a final concentration of 10 μM, or as indicated. The cells were incubated for 3 h at 37°C in a 5% CO2 atmosphere, washed with PBS, fixed with 4% formaldehyde for 30 min, and washed thrice with PBS. A drop of Prolong Gold anti-fade reagent with DAPI (Invitrogen, Life Technologies New Zealand Ltd) was added, and the cells mounted and examined with a Nikon E600 fluorescence microscope or a Leica TCS-SP2 confocal microscope.
(§2) Supplementary Figure 3. The D-isomeric form of Xentry aa 16-22 is cell permeable, and is stable in serum for at least 4 h.
(§3) (a) FITC-labelled D-isomeric Xentry was incubated with HepG2 cells at concentrations of […] for 3 h.
(§4) Uptake was recorded by fluorescence microscopy. Cell nuclei were stained with DAPI. (b) FITC-labelled L-isomeric and D-isomeric forms of Xentry were incubated in serum for 0, 1, and 4 h before incubation with HepG2 cells. Cell nuclei were stained with DAPI. Scale bar, 50 μm. […]

Data set [3] concerns peripheral blood monocytes attached to plastic. The data set can be described thus: Uptake of Xentry by adherent blood monocytes. It counts as cell-based, human. Conditions: FITC-labelled Xentry 10 μM.
A short description of data set [4]: Acute toxicity after intravenous injection. Type of data set: in vivo. Conditions: very high concentrations, single injection into the circulation.
Data set [5] is classed as in vitro ADME. Conditions: FITC-labelled peptide incubated in serum 0, 1 and 4 h, then incubated with HepG2 cells; read-out cell uptake by fluorescence microscopy. On the procedure: as §2, §3, §4
Data set [6] relates to DU145 (prostate). In words: Cell permeability of Xentry, DU145 cell line. Type of data set: cell-based. The settings on record: data not shown.
For data set [7], the system named is HepG2 cells. It counts as cell-based. On the procedure: as §1
Untreated 37°C 4°C deoxyglucose Heparin Chlorpromazine
Supplementary Figure 2. Cellular requirements for internalization of Xentry by HepG2 cells. (a) Incubation of FITC-labelled Xentry with HepG2 cells for 3 h at 4°C, or in the presence of 10 mM sodium azide and 6 mM 2-deoxy-D-glucose, 2 µg/ml heparin, or 10 µg/ml of chlorpromazine, as indicated, inhibited peptide uptake. Cell nuclei were stained blue with DAPI. Scale bar, 50 μm. […]

The test system of data set [8] is Cos (kidney). In words: Cell permeability of Xentry, Cos cell line. It counts as cell-based. Conditions: data not shown.
Data set [9] deals with H441 (lung). In words: Cell permeability of Xentry, H441 cell line. It counts as cell-based. The settings on record: data not shown.
The test system of data set [10] is C32 (melanoma). In words: Cell permeability of Xentry, C32 cell line. Type of data set: cell-based. Conditions: data not shown.
Data set [11] has as its system K562 erythroleukemia cells. It counts as cell-based. The settings on record: non-adherent K562 erythroleukemia cells, FITC-labelled Xentry (LCLRPVG), fluorescence microscopy. On the procedure:
(§5) K562 cells TK-1 cells Activated TK-1 cells
(§6) Supplementary Figure 1. […] FITC- […]
(§7) labelled Xentry (LCLRPVG; aa 16-22) was incubated with non-adherent K562 erythroleukemia cells and mouse TK-1 T cells and with Mn++-activated TK-1 cells attached to MAdCAM-1-coated plates. Cell uptake was recorded by fluorescence microscopy. Cell nuclei were stained blue with DAPI. Plates were coated with 1 µg/ml of MAdCAM-1 overnight and activated TK-1 cells were allowed to bind to the plates for 45 mins before incubation with FITC-labelled Xentry for 3 h. Scale bar represents […]

For data set [12], the system named is mouse TK-1 T cells. It counts as cell-based. Conditions: non-adherent mouse TK-1 T cells, FITC-labelled Xentry (LCLRPVG), fluorescence microscopy. As to the method:
as §5, §6, §7

Data set [13] concerns human peripheral blood lymphocytes. The data set can be described thus: Uptake of Xentry by non-adherent blood lymphocytes. It counts as cell-based. The settings on record: FITC-labelled Xentry 10 μM.
Data set [14] relates to erythrocytes. In words: Uptake of Xentry by erythrocytes. Type of data set: cell-based, human. Conditions: FITC-labelled Xentry 10 μM.
For data set [15], the system named is BT474 (breast). In words: Cell permeability of Xentry, BT474 cell line. Conditions: data not shown. It counts as cell-based.
Data set [16] has as its system Mn++-activated adherent TK-1 T cells bound to MAdCAM-1-coated plates. It counts as cell-based, mouse. Conditions: Mn++-activated TK-1 cells bound via α4β7 to plates coated with 1 µg/ml MAdCAM-1, FITC-labelled Xentry 3 h. As to the method: as §5, §6, §7
For data set [17], the system named is K562 cells transfected to express syndecan-4. The data set can be described thus: Uptake of Xentry by K562 cells engineered to express syndecan-4. It counts as cell-based. The settings on record: TAMRA-lclrpvg 20 μM, 3 h, 48 h after transfection with pCMV-hygro-SDC4. As to the method:
Cell nuclei were stained blue with DAPI. […] Scale bar, 50 μm.
The media was removed and replaced with RPMI without serum. Four micrograms of the syndecan-4 plasmid pCMV-hygro-SDC4 and 4 μl of polymag transfection reagent (OZ Biosciences, Marseille, France) were mixed in 100 μl of Opti-MEM media. The mixture was incubated for 20 min at room temperature, added to the cells, and the tissue culture plate placed onto a magnetic plate for 20 min. The media was removed and replaced with RPMI media containing 10% FCS, followed by incubation for 48 h at 37°C and 5% CO2, with a media change after 24 h. TAMRA-labelled Xentry (TAMRA-lclrpvg) was added to the transfectants 48 h following transfection to a final concentration of 20 μM, and the cells were incubated for 3 h. The cells were removed from the plate, washed thrice with PBS, cytospun onto a slide, and fixed with 4% formaldehyde for 15 min. They were washed with PBS and DAPI added for visualization of cell nuclei. […] The cells were then examined using a Nikon E600 fluorescent microscope, and photographed.

Data set [18] concerns circulating blood cells. Type of data set: in vivo, Balb/c mice. The settings on record: 0.1, 1 and 5 mg i.v.; cytospins of whole blood at 15 min, 1 h, 6 h and 24 h. As to the method:
(§8) All experiments in mice were performed in accordance with relevant institutional guidelines and regulations, and were subject to a protocol approved by the Animal Ethics Committee, the University of Auckland. Different amounts (0.1 mg, 1 mg and 5 mg) of a TAMRA-labelled D-isomeric form of Xentry (TAMRA-lclrpvg; Peptide 2.0 Inc., Chantilly, VA) were dissolved in 50 μl of PBS. […] Cardiac blood was collected into an EDTA tube and cytospun onto slides, and viewed by fluorescence microscopy to determine uptake of the peptide by blood cells. The major organs of each mouse was harvested and dissected in half to be either homogenized or placed in a cryotube with isopentane, frozen and sectioned. For homogenization, the organs were weighed and then homogenized in 500 μl of PBS in an Omni bead-ruptor homogenizer (OMNI International, Kennesaw, GA). Equal volumes of homogenate and 8 M guanidinium chloride were mixed, and then centrifuged at 12,000 g for 5 min, and fluorescence of the supernatant measured in a fluorescence plate reader.
Supplementary Figure 6. […] A sample of […]
cardiac blood was collected from mice injected with 0.1, 1 and 5 mg of TAMRA-labelled Xentry at 4 different time points, and cytospun onto a slide. The blood sample was examined by brightfield and fluorescence microscopy. […]

The format of data set [19] is in vivo, Balb/c mice. On the procedure:
as §8
Supplementary Figure 5 (cont)
Heart Lung Liver Spleen Pancreas Kidney Stomach Intestine Colon Muscle Brain […]
Supplementary Figure 5. Biodistribution of TAMRA-labelled Xentry intravenously injected into mice. (a) Mice were intravenously injected with 0.1 mg and 5 mg of TAMRA-labelled Xentry and the fluorescence of organ homogenates was measured 15 min, 1, 6, and 24 h later. Results are presented as the mean + SD (n = 3). Refer to Figure 4d for the fluorescence of organ homogenates of mice injected with 1 mg of Xentry. (b) Fluorescence of sections of the major organs of mice intravenously injected with 5 mg of TAMRA-labelled Xentry. The liver sections for the 15 min time-point […]

This is an account of results in article PMC3627194, “Xentry, a new class of cell-penetrating peptide uniquely equipped for delivery of drugs” (Scientific Reports, 2013).

With “LCLRPVG [Xentry, 7 amino acid residue peptide LCLRPVG (residues 16–22) of the HBV X-protein; FITC-labelled in uptake tests]”, the Cell permeability result in [1] is given as “capable of permeating”; in [6], “capable of permeating”; in data set [8] it was “capable of permeating”; in [9] it was “capable of permeating”; in data set [10], “capable of permeating”; in data set [11], “incapable of permeating”. Moreover, the Cell permeability entry is “incapable of permeating” in data set [12], “incapable of permeating” in [13], “incapable of permeating” in [14] and “capable of permeating” in data set [15]. In addition, the “Cell permeability (uptake by HepG2 cells)” value in data set [2] (FITC-labelled L-isomeric peptide 10 μM, MEM without FCS, 3 h, 37°C, cells fixed) is listed as “cell-permeable”. Also, the “Subcellular localisation after uptake” value in [2] (FITC-labelled peptide 10 μM, HepG2 cells, DAPI) was “taken up into the cytoplasm and nucleus”. Also, the Cell uptake entry in [3] and in [16] was “taken up” in each case. The Acute toxicity result in data set [4] was “no signs of acute toxicity”. The “Time to inactivation in serum” value in data set [5] is reported as ≤ 1 h. Besides, the “Internalization by HepG2 cells at 4°C” value in [7] (FITC-labelled Xentry, 3 h, 4°C) was “not at 4 °C”. In data set [7] (FITC-labelled Xentry, 3 h, 37°C), the “Internalization by HepG2 cells at 37°C” value is recorded as “internalized”. Besides, the “Uptake in the presence of heparin” value in data set [7] (HepG2, 2 µg/ml heparin, 3 h) is “blocked”. The “Uptake in the presence of chlorpromazine” value in [7] (HepG2, 10 µg/ml chlorpromazine (clathrin pathway inhibitor), 3 h) is “blocked”. For the same substance, the “Uptake after pretreatment with azide and deoxyglucose” value in [7] (HepG2, 10 mM sodium azide and 6 mM 2-deoxy-D-glucose, 3 h) is recorded as “blocked”. The “Effect of cytochalasin D on uptake” value in [7] (HepG2, data not shown) is given as “without effect”. Also, the “Effect of filipin on uptake” value in data set [7] (HepG2, data not shown) was “without effect”.
As for “TAMRA-lclrpvg [TAMRA-labelled Xentry, TAMRA-labelled D-isomeric form of Xentry]”, the “Uptake by syndecan-4-expressing K562 transfectants” value in [17] is “increased uptake”. In addition, the “Uptake by circulating blood cells” value in data set [18] was “not taken up and sequestered”. The “Uptake by heart, pancreas, brain relative to other tissues” value in data set [19] (0.1, 1 and 5 mg i.v., organ homogenates) is given as “less well”. The “Time to uptake by major tissues (organ homogenates)” value in [19] (0.1, 1 and 5 mg i.v., lungs, liver, spleen, kidneys, stomach, small intestine, colon, muscle, homogenate fluorescence, n = 3) is ≤ 15 min. Further, in [19] (i.v., 24 h, organ homogenates), the “Level in most organs, except liver and kidneys, by 24 h” value is reported as “only low levels”. The “Distribution within tissue sections” value in [19] (i.v., fluorescence of organ sections) is “concentrated within particular regions of certain tissues, such as the epithelia lining the colon, stomach and bronchial airways”.
